One block for each compound: values may come before it.
Columns and labels:
[1] = tested on: NaIO3-induced retinal degeneration mice; assay: TUNEL assay in NaIO3-induced retinal degeneration mouse model; type: in vivo, BALB/c mice; settings: N=3, Figure 3C
Method: (§1) To confirm the therapeutic effect of 6R-FBP, histological evaluation was conducted through hematoxylin and eosin (H&E) staining and the TUNEL assay. The eyes were fixed with 4% paraformaldehyde in PBS at room temperature for 20 min. After fixation, the eyes were sequentially incubated in 10%, 20%, and 30% (w/v) sucrose solution diluted in PBS for 30 min each at room temperature. Subsequently, the eyeballs were sagittally halved with a razor blade and embedded in Tissue-Tek® OCT Compound, and then frozen immediately in a liquid nitrogen chamber. Trimming was minimized to maintain controlled distances and ensure consistency, and sections were sliced at a thickness of 10 μm. Sections from the eye cryoblock were used for H&E staining and the TUNEL assay. The TUNEL assay was conducted according to the manufacturer’s protocol using the TUNEL assay kit (Abcam).

[2] = tested on: NaIO3-induced retinal degeneration mice; assay: In vivo real-time PCR of eye posterior hemisphere in NaIO3-induced retinal degeneration mouse model; set-up: species or system BALB/c mice; settings: N=3, Figure 3D; for expression of Fas receptor, inflammatory cytokines, and macrophages compared to the mock group (qPCR): posterior hemisphere
Text: The mouse eye posterior hemisphere was dissected using Vannas scissors. Subsequently, total RNA was extracted from the posterior hemisphere of the left eye using the RNAiso kit (Takara). RNA was reverse-transcribed with the High-Capacity cDNA Reverse Transcription Kit (Applied Biosystems, Waltham, MA, USA) and quantified using PowerUp™ SYBR™ Green Master Mix (Thermo Fisher Scientific, Waltham, MA, USA) on an ABI 7500 Fast Real-Time PCR system (Applied Biosystems, Waltham, MA, USA). Relative expression was determined using the ΔΔCt method, normalized against GAPDH mRNA levels. The primer sequences used are depicted in Table 2.

[3] = tested on: NaIO3-induced retinal degeneration mice; assay: H&E histology in NaIO3-induced retinal degeneration mouse model; type: in vivo, BALB/c mice; settings: NaIO3 30 mg/kg i.v., N=3, Figure 3B
Method: as §1

[4] = tested on: Fas-expressing Jurkat cells; assay: Size-dependent FBP binding test in Jurkat cells (flow cytometry); settings: N=3, Figure S4A
Text: (§2) Figure S4. Size- dependent FBP binding test in Jurkat cells. (A) Size- dependent FBP flow cytometry analysis of binding in Jurkat cells. (B) Size-dependent FBP flow cytometry analysis of apoptosis in Jurkat cells. The data are pres en ted as the mean ± SD (N=3 per group). *P<0.05, ***P<0.001, and ns indicates not

[5] = tested on: Jurkat cells; assay: Flow cytometry analysis of Fas/FasL-mediated apoptosis in Jurkat cells; type: cell-based; settings: N=3, Figure S4B
Text: as §2

[6] = tested on: NaIO3-induced retinal degeneration mice; settings: mouse, in vivo
Method: Retinal degeneration was induced by intravenous injection of NaIO3 (30 mg/kg) in 6-week-old male BALB/c mice (N = 3 per group), weighing 18–22 g (Orient Bio, Seoul, Korea). The eye drop administration group received peptides dissolved in PBS at dosages of 10 mg/mL (50 μg/5 μL) per ocular instillation. For intravitreal administration, peptide solutions dissolved in PBS were administered into the vitreous humor at a concentration of 1 mg/mL (1 μg/1 μL) per administration.
The N-terminal of the target peptide was fluorescently tagged using Alexa Fluor™ 647 NHS Ester (Succinimidyl Ester) (Invitrogen, Carlsbad, CA, USA), following the manufacturer’s protocol. Subsequently, free dye molecules were removed through a PD-10 desalting column (GE Healthcare, Milwaukee, WI, USA). Seven days after induction with NaIO3, Alexa647-conjugated peptides were administered via eye drops. Twelve hours after the last administration, organs were harvested for experiments, and Alexa647 signals were detected on whole organs using a FOBI imaging machine ([sequence], Cheongju, Republic of Korea).
For IHC, eyes were harvested and embedded in the Tissue-Tek® OCT Compound (Sakura Finetek Europe BV, Alphen aan den Rijn, The Netherlands) to prepare cryoblocks for cryosectioning. After freezing the eyes in the Tissue-Tek® OCT Compound, the eyes were cryosectioned to a thickness of 10 μm and mounted with ProLong™ Glass Antifade Mountant with NucBlue™ Stain (Invitrogen). The anti-Fas rabbit mAb (#4233S, Cell Signaling Technology, Danvers, MA, USA) was used to capture the Fas receptor, and the Fas antibody was subsequently detected using Goat Anti-Rabbit IgG H&L (Alexa Fluor® 488) (ab150077, Abcam, Cambridge, UK). A ZEISS Axio Scan.Z1 Slide Scanner (Carl Zeiss, Oberkochen, Germany) was employed to detect NucBlue™ stained cell nuclei and the Alexa647-conjugated peptide signals.

[7] = tested on: cleaved caspase-3 and 8; assay: Western blot of apoptosis-related proteins in NaIO3-treated ARPE-19 cells; type: cell-based, human; settings: ARPE-19, NaIO3-treated; Figure 1C
Method: Total protein samples were extracted from ARPE-19 cells using ice-cold RIPA buffer containing a protease inhibitor cocktail. A 4× sample buffer containing Tris-(2-Carboxyethyl)phosphine (Invitrogen, Carlsbad, CA, USA) was prepared by mixing 950 µL of 4× Laemmli sample buffer (GenDEPOT) with 50 µL of Tris-(2-Carboxyethyl)phosphine (Invitrogen). Protein samples (15 μg) were diluted in the sample buffer and heated at 95 °C for 5 min. The samples were then loaded onto a 12% SDS-PAGE gel and transferred onto a PVDF transfer membrane. The blots were probed with rabbit anti-cleaved caspase-3 (1:1000, Abcam, Cambridge, UK, ab52293), anti-cleaved caspase-8 (1:1000, Abcam, ab25901) and rabbit polyclonal anti-Fas (1:1000, Abcam, ab82419). Secondary polyclonal antibodies were probed with rabbit IgG coupled to HRP (1:2000, Abcam, ab97051). Finally, the blots were developed using ECL Western blotting substrate (Promega, Madison, WI, USA).

[8] = tested on: ARPE-19 cells; assay: Annexin V/PI flow cytometry apoptosis analysis in NaIO3-treated ARPE-19 cells; type: cell-based, human; settings: ARPE-19, NaIO3 10 mM + peptide 700 μM, 24 h; N=3; Figure 1B
Method: The efficacy of FBP on the inhibition of ARPE-19 cell apoptosis was assessed through annexin V/propidium iodide (PI) staining, followed by flow cytometry analysis. […] After 24 h of treatment with NaIO3 (10 mM) and the FBP peptide (700 μM), the cells were harvested and stained using the Dead Cell Apoptosis Kits with annexin V for Flow Cytometry (Invitrogen, Carlsbad, CA, USA), following the manufacturer’s protocol. The stained cells were collected and analyzed using a BD FACSCalibur™ system (Becton Dickinson, Franklin Lakes, NJ, USA).

[9] = tested on: Fas; assay: RT-PCR of Fas expression in NaIO3-treated ARPE-19 cells; type: cell-based, human; settings: ARPE-19, NaIO3 10 mM + peptide 700 μM, 24 h; N=3; Figure 1A
Method: (§3) After 24 h of treatment with NaIO3 (10 mM) and the FBP peptide (700 μM), the cells were harvested for analysis. Total RNA from the ARPE-19 cells was extracted using the RNAiso kit (Takara, Kyoto, Japan). Total RNA was reverse-transcribed into cDNA using the High-Capacity cDNA Reverse Transcription Kit (Applied Biosystems, Waltham, MA, USA). The quantification of gene expression was performed using PowerUp™ SYBR™ Green Master Mix (Thermo Fisher Scientific, Waltham, MA, USA) on an ABI 7500 Fast Real-Time PCR system (Applied Biosystems, Waltham, MA, USA). The sequences of primer pairs used for real-time PCR are depicted in Table 2.

[10] = tested on: ARPE-19 cells
Method: To confirm the cytotoxicity of CPP-conjugated FBP (4R-FBP, 5R-FBP, 6R-FBP, 9R-FBP) on ARPE-19 cells, the cells were plated in a 12-well plate at a density of 2 × 10^5/mL. After 24 h of treatment with various peptides (4R-FBP, 5R-FBP, 6R-FBP, 9R-FBP, and FBP), the CCK-8 assay was performed as per the manufacturer’s protocol.
Peptide toxicity was assessed
using CCK-8 assay in ARPE-19 cell. The data are presented as the mean ± SD (N=3 per group). ns

[11] = tested on: NaIO3-induced retinal degeneration rabbits; assay: Fundus imaging of RPE degenerated area in NaIO3-induced retinal degeneration rabbit model; type: in vivo, chinchilla rabbits; settings: for RPE degeneration compared with mock treatment (fundus imaging): NaIO3 60 mg/kg i.v., N=4, Figure 4B; for level of RPE degeneration on day 14 compared with mock group (fundus imaging): day 14, N=4, Figure 4B
Method: (§4) The efficacy of the treatment was evaluated through an experiment conducted by KNOTUS, a contract research organization. In brief, retinal degeneration was induced by intravenous injection of NaIO3 (60 mg/kg) in 20 chinchilla rabbits, weighing 2 kg.
(§5) The eye drop administration group received dosages of 5 mg/mL (250 μg/50 μL) per ocular instillation. For intravitreal administration, peptide solutions (5 mg/mL) were administered in increments of 40 μL per administration. A pipette was used to administer the test substance onto the central cornea of the right eye for each experimental group.
(§6) Anesthetized animals were administered the test substance via subconjunctival injection into the right eye using a 31-gauge syringe needle attached to a syringe. In the case of eye drop administration, the peptides and PBS were administered twice daily for 2 weeks, for a total of 28 administrations. For intravitreal administration, a single dose of the peptide was administered the day after the NaIO3 injection.
Before the administration of NaIO3 (Day 0) and upon concluding the experiment (Day 14), the right eyes of the rabbits were treated with a mydriatic agent (1% midriacyl eye drops). Subsequently, the rabbits were anesthetized with a mixture of Zoletil®50 (Virbac, Carros, France) and Rompun^TM (Bayer AG, Leverkusen, Germany) through intravenous injection (marginal ear vein) at a dosage of 0.1 mL/kg. Fundus imaging was conducted using a fundus camera (TRC-50IX, TOPCON, Tokyo, Japan). The retinal images were analyzed using Image J software version 1.54d (NIH, Bethesda, MD, USA) to determine the area of degeneration in the RPE, with the RPE injury area being manually selected. The total area of the retina, excluding the optic nerve region, was defined as the total area. The proportion of degenerated area was calculated as a percentage using Equation (1). Degenerated area (%) = Degenerated area/Total area(1)

[12] = tested on: NaIO3-induced retinal degeneration rabbits; assay: H&E staining, ONL to total retinal thickness, in NaIO3-induced retinal degeneration rabbits; type: in vivo, chinchilla rabbits; settings: rabbit, Day 14, N=4, Figure 4D
Method: as §4, §5, §6
On the concluding day of the experiment (Day 14), the animals were anesthetized using the previously described mixture of Zoletil®50 and Rompun^TM, after which they were sacrificed. NaIO3-induced retinal degeneration eyes were then extracted, and the central cornea was punctured using an injection needle. Subsequently, the specimens were fixed in a 10% neutral buffered formalin solution. For histopathological examination, the fixed tissues were subjected to processes such as fixation, dehydration, paraffin embedding, and sectioning. H&E staining was then performed, and the proportion (%) of the thickness of the outer nuclear layer (ONL) to the overall retinal thickness was calculated using an Olympus BX-53 optical microscope (Olympus, Tokyo, Japan). Two slides were prepared per eyeball relative to the optic nerve. Measurements were taken at three points on each slide, amounting to a total of six values, which were averaged.

[13] = tested on: NaIO3-induced ARPE-19 cells; assay: CCK-8 cell viability in NaIO3-induced ARPE-19 cells; type: cell-based, human; settings: NaIO3 10 mM, 24 h, FBP 100, 300, 500, 700, 900 μM, three independent experiments, Figure S2
Method: All experiments were performed using cells within specified passages.
Figure S2. Concentration -dependent cel l viability in NaI O3-indu ced ARPE-19 cells. Cell viability under concentration-dependent conditions wa s evaluated in NaIO3-induced ARPE- 19 cells. The data are presented as the mean ± SD from three independent experiments. ***P<0.001, and ns indicates not significa nt.

[14] = tested on: NF-κB, ERK, and JNK; assay: RT-PCR of cytokine and signaling pathway-related genes in NaIO3-treated ARPE-19 cells; type: cell-based, human; settings: ARPE-19, NaIO3 10 mM + FBP 700 μM, 24 h; Figure 1D
Method: as §3

[15] = tested on: Fas/FasL; settings: neuronal cells; previous study; cited from earlier work
[16] = eye drop application, peptides 10 mg/mL (50 μg/5 μL)
[17] = eye drops 5 mg/mL (250 μg/50 μL) twice daily for 14 days

Compound: C[C@@H]1C[C@H]2[C@@H]3CCC4=CC(=O)C=C[C@]4(C)[C@@]3(F)[C@@H](O)C[C@]2(C)[C@@]1(O)C(=O)CO [Dexa, dexamethasone, reference compound]
- apoptosis levels in retina (TUNEL) ([1]; eye drop application): lower apoptosis levels
- levels of M2 macrophages compared to the mock group (qPCR, CD206) ([2]; eye drop application): increased levels
- expression of Fas receptor, inflammatory cytokines, and macrophages compared to the mock group (qPCR) ([2]; eye drop application): decreased expression
- therapeutic effect on integrity of the retinal layer (H&E staining) [3, 16]: therapeutic effects

Compound: CDEHF [5-mer, 5-mer truncated FBP, CDEHF]
- binding to Fas-expressing Jurkat cells [4]: demonstrated binding
- inhibition of Fas/FasL-mediated apoptosis [5]: could not inhibit

- size-dependent retinal delivery (confocal, Alexa647 signal) [6]: successfully delivered
Compound: DEHF [4-mer, 4-mer truncated FBP, DEHF]
- binding to Fas-expressing Jurkat cells [4]: demonstrated binding
- inhibition of Fas/FasL-mediated apoptosis [5]: could not inhibit

Compound: GGGRRGGG [Ctrl, nonspecific control peptide, GGGRRGGG, reference compound]
- levels of cleaved caspase-3 and 8 (Western blot) [7]: upregulation
- apoptosis levels in retina (TUNEL) ([1]; eye drop application): higher apoptosis levels
- apoptosis (annexin V/PI staining) compared with mock group [8]: no protective effects against apoptosis
- therapeutic effect on integrity of the retinal layer (H&E staining) [3, 16]: no therapeutic effect
- expression of Fas (RT-PCR) [9]: increased

- size-dependent retinal delivery (confocal, Alexa647 signal) [6]: robust fluorescence signals
Compound: RRRRRRGGGGYCDEHFCY [6R-FBP, hexa-arginine (6R) conjugated with FBP]
- toxicity of CPP-conjugated FBP in retinal cells [10]: lower toxicity
- RPE degeneration compared with mock treatment (fundus imaging) [11, 17]: significant reduction in RPE degeneration
- proportion of thickness of ONL to total retinal thickness compared with mock group (H&E) ([12]; eye drops twice daily): maintenance of the ONL
- apoptosis levels in retina (TUNEL) ([1]; eye drop application): lower apoptosis levels
- levels of M2 macrophages compared to the mock group (qPCR, CD206) ([2]; eye drop application): increased levels
- expression of Fas receptor, inflammatory cytokines, and macrophages compared to the mock group (qPCR) ([2]; eye drop application): decreased expression
- therapeutic effect on integrity of the retinal layer (H&E staining) [3, 16]: therapeutic effects

Compound: YCDEHFCY [FBP]
- FBP concentration at which viability of NaIO3-induced ARPE-19 cells was maximum [13]: exceeding 700 μM
- levels of cleaved caspase-3 and 8 (Western blot) [7]: significant decrease
- RPE degeneration compared with mock treatment (fundus imaging) [11, 17]: significant reduction in RPE degeneration
- RPE degeneration compared with mock treatment (fundus imaging) ([11]; single intravitreal injection 5 mg/mL, 40 μL): significant reduction in RPE degeneration
- level of RPE degeneration on day 14 compared with mock group (fundus imaging) ([11]; eye drops twice daily for 14 days): significantly lower
- level of RPE degeneration on day 14 compared with mock group (fundus imaging) ([11]; single intravitreal injection): significantly lower
- levels of NF-κB, ERK, and JNK (RT-PCR) [14]: decreased levels
- proportion of thickness of ONL to total retinal thickness compared with mock group (H&E) ([12]; eye drops twice daily): maintenance of the ONL
- proportion of thickness of ONL to total retinal thickness compared with mock group (H&E) ([12]; single intravitreal injection): maintenance of the ONL
- transfer to other organs (fluorescence signal vs normal group) [6]: not transferred to any other organ but the eyes
- apoptosis levels in retina (TUNEL) ([1]; eye drop application): higher apoptosis levels
- apoptosis levels in retina (TUNEL) ([1]; intravitreal injection): lower apoptosis levels
- apoptosis (annexin V/PI staining) compared with mock group [8]: statistically significant decrease in apoptosis
- inhibition of Fas/FasL ligation [15]: effective inhibition of Fas/FasL ligation
- levels of M2 macrophages compared to the mock group (qPCR, CD206) ([2]; intravitreal injection): increased levels
- expression of Fas receptor, inflammatory cytokines, and macrophages compared to the mock group (qPCR) ([2]; intravitreal injection): decreased expression
- therapeutic effect on integrity of the retinal layer (H&E staining) [3, 16]: no therapeutic effect
- therapeutic effect on integrity of the retinal layer (H&E staining) ([3]; intravitreal injection 1 mg/mL (1 μg/1 μL)): therapeutic effects
- expression of Fas (RT-PCR) [9]: reduced

From PMC10969560, “Eye Drop with Fas-Blocking Peptide Attenuates Age-Related Macular Degeneration” (Cells, 2024)
